Tested on: human Cav3.1 Cav3.2 or Cav3.3 channel
Assay: In vitro assay T channel (FLIPR calcium fluorescence)
Format: cell-based
Details: HEK293 cells expressing human Cav3.1, Cav3.2 or Cav3.3; 10 mM Ca2+-induced fluo-4 fluorescence; determined up to 10 μM; read-out: T channel antagonistic activity IC50
Method in brief: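 IC50 (nM) is the antagonist concentration halving the area under the fluorescence peak evoked by 10 mM Ca2+, relative to vehicle, with testing up to 10 μM. Fluo-4-loaded HEK293 cells expressing each human Cav3 subtype received compound 3 min before Ca2+ addition (TEA-based buffer, pH 7.2); signal monitored 8 min at 2 s intervals.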

SMILES	IC50 [nM]
COc1ccc(C)c2nc(CCCN(C)CC[C@]3(OC(=O)C(C)C)C[C@H]4CC[C@@H]3C=C4c3ccccc3)[nH]c12 (relative stereo) [Example 30A, rac-Isobutyric acid (1R*,2R*,4R*)-2-(2-{[3-(7-methoxy-4-methyl-1H-benzoimidazol-2-yl)-propyl]-methyl-amino}-ethyl)-5-phenyl-bicyclo[2.2.2]oct-5-en-2-yl ester]	1250
Cc1cc2cc(CCCN(C)CC[C@]3(O)C[C@H]4CC[C@@H]3C=C4c3ccccc3)cnc2o1 (relative stereo) [Example 42, rac-(1R*,2R*,4R*)-2-(2-{Methyl-[3-(2-methyl-furo[2,3-b]pyridin-5-yl)-propyl]-amino}-ethyl)-5-phenyl-bicyclo[2.2.2]oct-5-en-2-ol]	> 10000
COC(=O)c1cccc2[nH]c(CCCN(C)CC[C@]3(O)C[C@H]4CC[C@@H]3C=C4c3ccccc3)nc12 (relative stereo) [Example 19, rac-2-(3-{[2-((1R*,2R*,4R*)-2-Hydroxy-5-phenyl-bicyclo[2.2.2]oct-5-en-2-yl)-ethyl]-methyl-amino}-propyl)-1H-benzoimidazole-4-carboxylic acid methyl ester]	1570
CC(C)C(=O)O[C@@]1(CCN(C)CCCc2cncc3ccccc23)C[C@H]2CC[C@@H]1C=C2c1ccccc1 (relative stereo) [Example 48A, rac-Isobutyric acid (1R*,2R*,4R*)-2-{2-[(3-isoquinolin-4-yl-propyl)-methyl-amino]-ethyl}-5-phenyl-bicyclo[2.2.2]oct-5-en-2-yl ester]	> 10000
CCOc1cccc2nc(CCCN(C)CC[C@]3(OC(=O)C(C)C)C[C@H]4CC[C@@H]3C=C4c3ccccc3)[nH]c12 (relative stereo) [Example 31A, rac-Isobutyric acid (1R*,2R*,4R*)-2-(2-{[3-(7-ethoxy-1H-benzoimidazol-2-yl)-propyl]-methyl-amino}-ethyl)-5-phenyl-bicyclo[2.2.2]oct-5-en-2-yl ester]	2600
CC1=C(c2ccccc2)[C@H]2CC[C@@H]1C[C@]2(O)CCN(C)CCCc1nc2ccccc2[nH]1 (relative stereo) [Example 17B, rac-(1R*,2S*,4R*)-2-(2-{[3-(1H-Benzoimidazol-2-yl)-propyl]-methyl-amino}-ethyl)-5-methyl-6-phenyl-bicyclo[2.2.2]oct-5-en-2-ol]	751
CC(C)C(=O)O[C@@]1(CCN(C)CCCc2nc3ccccc3[nH]2)C[C@H]2CC[C@@H]1C=C2c1cccnc1 (relative stereo) [Example 9A, rac-Isobutyric acid (1R*,2R*,4R*)-2-(2-{[3-(1H-benzoimidazol-2-yl)-propyl]-methyl-amino}-ethyl)-5-pyridin-3-yl-bicyclo[2.2.2]oct-5-en-2-yl ester]	2340
CC(C)C(=O)OC1(CCN(C)CCCc2nc3ccccc3[nH]2)CC2CCC1C1=C2CCc2ccccc21 (racemic) [Example 18A, rac-Isobutyric acid (1R*,3R*,4R*)-1,2,3,4,9,10-hexahydro-3-hydroxy-3-{N-methyl-N-(3-benzimidazol-2-ylpropyl)aminoethyl}-1,4-ethanophenanthrene ester]	2050
CN(CCCc1cnc2occc2c1)CC[C@]1(O)C[C@H]2CC[C@@H]1C=C2c1ccccc1 (relative stereo) [Example 41, rac-(1R*,2R*,4R*)-2-{2-[(3-Furo[2,3-b]pyridin-5-yl-propyl)-methyl-amino]-ethyl}-5-phenyl-bicyclo[2.2.2]oct-5-en-2-ol]	> 10000
COC(=O)c1ccc2[nH]c(CCCN(C)CC[C@]3(O)C[C@H]4CC[C@@H]3C=C4c3ccccc3)nc2c1 (relative stereo) [Example 20, rac-2-(3-{[2-((1R*,2R*,4R*)-2-Hydroxy-5-phenyl-bicyclo[2.2.2]oct-5-en-2-yl)-ethyl]-methyl-amino}-propyl)-1H-benzoimidazole-5-carboxylic acid methyl ester]	> 10000
CN(CCCc1nc2cc(Cl)c(Cl)cc2[nH]1)CC[C@]1(OC(=O)C2CC2)C[C@H]2CC[C@@H]1C=C2c1ccccc1 (relative stereo) [Example 27B, rac-Cyclopropanecarboxylic acid (1R*,2R*,4R*)-2-(2-{[3-(5,6-dichloro-1H-benzoimidazol-2-yl)-propyl]-methyl-amino}-ethyl)-5-phenyl-bicyclo[2.2.2]oct-5-en-2-yl ester]	4730
Cc1ccccc1C1=C[C@H]2CC[C@@H]1C[C@]2(CCN(C)CCCc1nc2ccccc2[nH]1)OC(=O)C(C)C (relative stereo) [Example 4A, rac-Isobutyric acid (1R*,2R*,4R*)-2-(2-{[3-(1H-benzoimidazol-2-yl)-propyl]-methyl-amino}-ethyl)-5-(2-methyl-phenyl)-bicyclo[2.2.2]oct-5-en-2-yl ester]	4220
COc1ccc2[nH]c(CCCN(C)CC[C@]3(O)C[C@H]4CC[C@@H]3C=C4c3ccccc3)nc2c1 (relative stereo) [Example 29, rac-(1R*,2R*,4R*)-2-(2-{[3-(5-Methoxy-1H-benzoimidazol-2-yl)-propyl]-methyl-amino}-ethyl)-5-phenyl-bicyclo[2.2.2]oct-5-en-2-ol]	> 10000
COc1ccc(OC)c2[nH]c(CCCN(C)CCC3(OC(=O)C(C)C)CC4CCC3C=C4c3ccccc3)nc12 [Example 67A, Isobutyric acid (1R,2R,4R)-2-(2-{[3-(4,7-dimethoxy-1H-benzoimidazol-2-yl)-propyl]-methyl-amino}-ethyl)-5-phenyl-bicyclo[2.2.2]oct-5-en-2-yl ester or Isobutyric acid (1S,2S,4S)-2-(2-{[3-(4,7-dimethoxy-1H-benzoimidazol-2-yl)-propyl]-methyl-amino}-ethyl)-5-phenyl-bicyclo[2.2.2]oct-5-en-2-yl ester]	778
COc1cc2nc(CCCN(C)CC[C@]3(OC(=O)C(C)C)C[C@H]4CC[C@@H]3C=C4c3ccccc3)[nH]c2cc1OC (relative stereo) [Example 28A, rac-Isobutyric acid (1R*,2R*,4R*)-2-(2-{[3-(5,6-dimethoxy-1H-benzoimidazol-2-yl)-propyl]-methyl-amino}-ethyl)-5-phenyl-bicyclo[2.2.2]oct-5-en-2-yl ester]	3460
CC(C)C(=O)O[C@@]1(CCN(C)CCCc2ccccc2)C[C@H]2CC[C@@H]1C=C2c1ccccc1 (relative stereo) [Example 15A, rac-Isobutyric acid (1R*,2R*,4R*)-2-{2-[methyl-(3-phenyl-propyl)-amino]-ethyl}-5-phenyl-bicyclo[2.2.2]oct-5-en-2-yl ester]	8630
CC1=C(c2ccccc2)[C@H]2CC[C@@H]1C[C@@]2(O)CCN(C)CCCc1nc2ccccc2[nH]1 (relative stereo) [Example 17, rac-(1R*,2R*,4R*)-2-(2-{[3-(1H-Benzoimidazol-2-yl)-propyl]-methyl-amino}-ethyl)-5-methyl-6-phenyl-bicyclo[2.2.2]oct-5-en-2-ol]	1260
COCCOc1cccc2[nH]c(CCCN(C)CC[C@]3(OC(=O)C(C)C)C[C@H]4CC[C@@H]3C=C4c3ccccc3)nc12 (relative stereo) [Example 63A, rac-Isobutyric acid (1R*,2R*,4R*)-2-[2-({3-[4-(2-methoxy-ethoxy)-1H-benzoimidazol-2-yl]-propyl}-methyl-amino)-ethyl]-5-phenyl-bicyclo[2.2.2]oct-5-en-2-yl ester]	1440
Cc1nc(CCCN(C)CC[C@]2(OC(=O)C(C)C)C[C@H]3CC[C@@H]2C=C3c2ccccc2)[nH]c1-c1ccccc1 (relative stereo) [Example 71A, rac-Isobutyric acid (1R*,2R*,4R*)-2-(2-{methyl-[3-(4-methyl-5-phenyl-1H-imidazol-2-yl)-propyl]-amino}-ethyl)-5-phenyl-bicyclo[2.2.2]oct-5-en-2-yl ester]	1450
COc1ccccc1C1=C[C@H]2CC[C@@H]1C[C@]2(CCN(C)CCCc1nc2ccccc2[nH]1)OC(=O)C(C)C (relative stereo) [Example 23A, rac-Isobutyric acid (1R*,2R*,4R*)-2-(2-{[3-(1H-benzoimidazol-2-yl)-propyl]-methyl-amino}-ethyl)-5-(2-methoxy-phenyl)-bicyclo[2.2.2]oct-5-en-2-yl ester]	4010
CCCC1=C(C)[C@H]2CC[C@@H]1C[C@]2(CCN(C)CCCN(C)C(=O)C(C)(COC)COC)OC(=O)C(C)C (relative stereo) [Example 52A, rac-Isobutyric acid (1R*,2R*,4R*)-2-[2-({3-[(3-methoxy-2-methoxymethyl-2-methyl-propionyl)-methyl-amino]-propyl}-methyl-amino)-ethyl]-6-methyl-5-propyl-bicyclo[2.2.2]oct-5-en-2-yl ester]	4210
CC(C)C(=O)OC1(CCN(C)CCCc2nc3ccccc3[nH]2)CC2CCC1C=C2c1ccccc1 [Example 11A, Isobutyric acid (1R,2R,4R)-2-(2-{[3-(1H-benzoimidazol-2-yl)-propyl]-methyl-amino}-ethyl)-5-phenyl-bicyclo[2.2.2]oct-5-en-2-yl ester or isobutyric acid (1S,2S,4S)-2-(2-{[3-(1H-benzoimidazol-2-yl)-propyl]-methyl-amino}-ethyl)-5-phenyl-bicyclo[2.2.2]oct-5-en-2-yl ester]	4650
CC(C)C(=O)O[C@@]1(CCN(C)CCCNC(=O)C(C)(C)C)C[C@H]2CC[C@@H]1C=C2c1ccccc1 (relative stereo) [Example 45A, rac-Isobutyric acid (1R*,2R*,4R*)-2-(2-{[3-(2,2-dimethyl-propionylamino)-propyl]-methyl-amino}-ethyl)-5-phenyl-bicyclo[2.2.2]oct-5-en-2-yl ester]	1700
CN(CCCc1nc2ccccc2[nH]1)CC[C@]1(O)C[C@H]2CC[C@@H]1C=C2c1cccc(F)c1 (relative stereo) [Example 7, rac-(1R*,2R*,4R*)-2-(2-{[3-(1H-Benzoimidazol-2-yl)-propyl]-methyl-amino}-ethyl)-5-(3-fluoro-phenyl)-bicyclo[2.2.2]oct-5-en-2-ol]	4400
